Test results from patent publication US8288375B2, “Fungicidal bicyclic pyrazoles” (E.I. du Pont de Nemours and Company, priority 2007, dated 2012).
Marks after values point to notes of the source that are not given here.

Legend:
Type in all cases: in vivo
Plasmopara viticola = experiment: Test K: grape downy mildew, grape seedlings inoculated and then sprayed, disease rating; details: 200 ppm test suspension
[1] = tested on: Erysiphe graminis f. sp. tritici; experiment: Test A: wheat powdery mildew, test suspension sprayed on wheat seedlings, disease rating; details: 200 ppm test suspension, 100 = 100% disease control, 0 = no control; for pest or weed control at 200 ppm: Blumeria graminis, 192 h
Phytophthora infestans = experiment: whole plant or invertebrate
Pythium aphanidermatum = experiment: Test L: bluegrass pythium blight, test suspension sprayed on bluegrass seedlings, disease rating;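 further: 200 ppm unless marked * meaning 40 ppm or ** meaning 10 ppm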
Rhizoctonia oryzae = experiment: Test I: turf brown patch, test suspension sprayed on creeping bent grass seedlings, disease rating; details: 200 ppm test suspension; for pest or weed control at 200 ppm: Waitea circinata, in Agrostis stolonifera, 120 h
[2] = tested on: Colletotrichum orbiculare; experiment: Test F: cucumber Colletotrichum anthracnose, test suspension sprayed on cucumber seedlings, disease rating
Septoria nodorum = experiment: Test D: wheat glume blotch, test suspension sprayed on wheat seedlings, disease rating; details: 200 ppm test suspension; for pest or weed control at 200 ppm: Parastagonospora nodorum, 216 h
Botrytis cinerea = experiment: Test H: tomato Botrytis, test suspension sprayed on tomato seedlings, disease rating; details: 200 ppm test suspension; for pest or weed control at 200 ppm: Botrytis cinerea, 120 h
Fusarium graminearum = experiment: whole plant or invertebrate; details: for pest or weed control at 40 ppm: Fusarium graminearum, in Triticum aestivum, 192 h, read-out: Test C disease control rating
Septoria tritici = experiment: Test E: wheat leaf blotch, test suspension sprayed on wheat seedlings, disease rating;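 further: 200 ppm unless marked * meaning 40 ppm or ** meaning 10 ppm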
[3] = tested on: Puccinia recondite f sp. tritici; experiment: Test B: wheat leaf rust, test suspension sprayed on wheat seedlings, disease rating; details: for pest or weed control at 40 ppm: Puccinia, 192 h;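 on all read-outs here: 200 ppm unless marked * meaning 40 ppm or ** meaning 10 ppm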
Alternaria solani = experiment: Test G: tomato early blight, test suspension sprayed on seedlings, disease rating;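 further: 200 ppm unless marked * meaning 40 ppm or ** meaning 10 ppm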
[4] = Phytophthora infestans, in Solanum lycopersicum, 120 h, read-out: Test J disease control rating

| SMILES | Test A disease control rating [1] | Test J disease control rating (Phytophthora infestans; 200 ppm test suspension) | Test L disease control rating (Pythium aphanidermatum; 200 ppm test suspension) | Test I disease control rating (Rhizoctonia oryzae) | Test F disease control rating ([2]; 200 ppm test suspension) | Test D disease control rating (Septoria nodorum) | Test H disease control rating (Botrytis cinerea) | Test C disease control rating (Fusarium graminearum; 200 ppm test suspension) | Test J disease control rating (Phytophthora infestans; 40 ppm test suspension (*)) | Test E disease control rating (Septoria tritici; 40 ppm test suspension (*)) | Test L disease control rating (Pythium aphanidermatum; 40 ppm test suspension (*)) | Test B disease control rating ([3]; 40 ppm test suspension (*)) | Test G disease control rating (Alternaria solani; 40 ppm test suspension (*)) | Test C disease control rating (Fusarium graminearum; 40 ppm test suspension (*)) | also measured |
| --- | --- | --- | --- | --- | --- | --- | --- | --- | --- | --- | --- | --- | --- | --- | --- |
| COCC(C)Nc1nccc(-c2c(-c3ccc(F)cc3F)nn3c2CCC3)n1 (stereo not drawn) [compound 88] | 0% | 100% | 99% | 0% | 0% | 60% | 21% | 100% |  |  |  |  |  |  | Test K disease control rating (Plasmopara viticola): 0% |
| Fc1ccc(-c2nn3c(c2-c2ccnc(NOCC4CCC4)n2)CCCC3)cc1 [compound 75] | 31% |  |  | 0% | 0% | 0% | 0% |  | 0* % | 92* % | 0* % | 0* % | 0* % | 0* % |  |
| CC(C)Nc1nccc(-c2c(-c3ccc(F)cc3)nn3c2CCC3)n1 [compound 91] | 74% | 0% | 88% | 0% | 16% | 98% | 99% | 100% |  |  |  |  |  |  | Test K disease control rating (Plasmopara viticola): 0%; Test B disease control rating ([3]; 200 ppm test suspension): 99% |
| CC(C)Nc1nccc(-c2c(-c3ccc(F)cc3)nn3c2CCCN3)n1 [Compound 136] | 0% |  |  | 0% | 0% | 97% | 41% |  | 57* % | 28* % | 100* % | 92* % | 99* % | 77* % |  |
| COCC(C)Nc1nccc(-c2c(-c3ccc(OC)cc3)nn3c2CCC3)n1 (stereo not drawn) [compound 86] | 0% | 94% | 99% | 0% | 0% | 51% | 0% | 0% |  |  |  |  |  |  | Test K disease control rating (Plasmopara viticola): 0% |
| CC(C)C(CO)Nc1nccc(-c2c(-c3ccc(F)cc3)nn3c2CCCC3)n1 (stereo not drawn) [compound 74] | 20% |  |  | 0% | 0% | 60% | 0% |  | 0* % | 86* % | 93* % | 91* % | 0* % | 10* % |  |
| CC(=O)N1CCn2nc(-c3ccc(F)cc3)c(-c3ccnc(NC(C)C)n3)c2C1 [Compound 130] | 86% |  |  | 0% | 0% | 97% | 34% |  | 100* % | 97* % | 100* % | 92* % | 58* % | 0* % |  |
| CC(CO)Nc1nccc(-c2c(-c3ccc(F)cc3)nn3c2CCCC3)n1.Cl (stereo not drawn) [compound 72] | 0% |  |  | 0% | 0% | 82% | 77% |  | 99* % | 47* % | 100* % | 94* % | 98* % | 0* % |  |
| CN1CCCc2c(-c3ccnc(NC4CC4)n3)c(-c3ccc(F)cc3)nn21 [Compound 135, N-cyclopropyl-4-[2-(4-fluorophenyl)-4,5,6,7-tetrahydro-7-methylpyrazolo[1,5-b]pyridazin-3-yl]-2-pyrimidinamine] |  |  |  |  |  |  |  |  |  |  |  |  |  |  | pest or weed control at 200 ppm [1]: 95%; pest or weed control at 40 ppm (Phytophthora infestans; [4]): 70%; pest or weed control at 40 ppm (Septoria tritici; Zymoseptoria tritici, 504 h, 40 ppm test suspension (*)): 90%; pest or weed control at 200 ppm (Rhizoctonia oryzae): 0%; pest or weed control at 40 ppm ([3]; 40 ppm test suspension (*)): 61%; pest or weed control at 200 ppm ([2]; Colletotrichum orbiculare, 144 h, 200 ppm test suspension): 99%; pest or weed control at 200 ppm (Septoria nodorum): 89%; pest or weed control at 40 ppm (Alternaria solani; Alternaria solani, 168 h, 40 ppm test suspension (*)): 99%; pest or weed control at 200 ppm (Botrytis cinerea): 70%; pest or weed control at 40 ppm (Fusarium graminearum): 84% |
| CCC(C)Nc1nccc(-c2c(-c3ccc(F)cc3F)nn3c2CCC3)n1 (stereo not drawn) [compound 87] | 0% | 94% | 99% | 0% | 0% | 78% | 0% | 99% |  |  |  |  |  |  | Test K disease control rating (Plasmopara viticola): 0% |
| CC(=O)N1CCCc2c(-c3ccnc(NC4CC4)n3)c(-c3ccc(F)cc3)nn21 [Compound 134, 1-[3-[2-(cyclopropylamino)-4-pyrimidinyl]-2-(4-fluorophenyl)-5,6-dihydropyrazolo[1,5-b]pyridazin-7(4H)-yl]ethanone] |  |  |  |  |  |  |  |  |  |  |  |  |  |  | pest or weed control at 200 ppm [1]: 91%; pest or weed control at 10 ppm (Phytophthora infestans; [4]): 90%; pest or weed control at 10 ppm (Septoria tritici; Zymoseptoria tritici, 504 h, 10 ppm test suspension (**)): 77%; pest or weed control at 40 ppm (Pythium aphanidermatum; Pythium aphanidermatum, 120 h, 40 ppm test suspension (*)): 100%; pest or weed control at 200 ppm (Rhizoctonia oryzae): 24%; pest or weed control at 40 ppm ([3]; 40 ppm test suspension (*)): 85%; pest or weed control at 40 ppm ([2]; Colletotrichum orbiculare, 144 h, 40 ppm test suspension (*)): 99%; pest or weed control at 200 ppm (Septoria nodorum): 96%; pest or weed control at 10 ppm (Alternaria solani; Alternaria solani, 168 h, 10 ppm test suspension (**)): 98%; pest or weed control at 200 ppm (Botrytis cinerea): 53%; pest or weed control at 40 ppm (Fusarium graminearum): 84% |
| CCCC(CO)Nc1nccc(-c2c(-c3ccc(F)cc3)nn3c2CCCC3)n1 (stereo not drawn) [compound 73] | 0% |  |  | 0% | 0% | 78% | 0% |  | 17* % | 84* % | 98* % | 85* % | 0* % | 0* % |  |
| C=CCN1CNCc2c(-c3ccnc(NC4CC4)n3)c(-c3ccc(F)cc3)nn21 [Compound 137] | 86% |  |  | 0% | 0% | 92% | 0% |  | 53* % | 73* % | 99* % | 0* % | 99* % | 69* % |  |
| CC(C)Nc1nccc(-c2c(-c3ccc(F)cc3)nn3c2CNCC3)n1.Cl [Compound 133] | 0% |  |  | 0% | 98% | 0% | 0% |  | 73* % | 0* % | 99* % | 19* % | 0* % | 42* % |  |
| CC(CO)Nc1nccc(-c2c(-c3ccc(F)cc3)nn3c2CCCC3)n1 (stereo not drawn) [Compound 5, 2-[[4-[2-(4-fluorophenyl)-4,5,6,7-tetrahydropyrazolo[5,1-a]pyridin-3-yl]-2-pyrimidinyl]amino]-1-propanol] | 96% | 99% | 100% | 0% | 99% | 97% | 99% | 100% |  |  |  |  | 98* % |  | Test E disease control rating (Septoria tritici; 200 ppm test suspension): 97%; Test B disease control rating ([3]; 200 ppm test suspension): 100% |
| CN(N)c1nccc(-c2c(-c3ccc(F)cc3)nn3c2CCCC3)n1 [compound 70] | 83% |  |  | 9% | 91% | 90% | 29% |  | 53* % | 84* % | 98* % | 0* % | 46* % | 0* % |  |
| COCC(C)Nc1nccc(-c2c(-c3ccc(C)cc3)nn3c2CCC3)n1 (stereo not drawn) [compound 89] | 21% | 0% | 99% | 0% | 0% | 60% | 8% | 100% |  |  |  |  |  |  | Test K disease control rating (Plasmopara viticola): 0% |
